In patent US4143041A, “4'-Deoxyvincristine and related compounds” (Eli Lilly and Company, priority 1977, dated 1979):
Counter-ions that a name gives are not always drawn.

How the values were obtained:
[1] = test system: experimental malignancies; details: cited from earlier work
[2] = test system: GLS (Gardner lymphosarcoma); experiment: transplanted Gardner lymphosarcoma (GLS) in mice; format: in vivo
Experimental: (§1) The compounds of this invention, as represented by Formula II above, particularly those in which R^1 is acetoxy, are powerful anti-tumor agents.
(§2) The following table -- Table 1 -- gives the results of several experiments in which transplanted tumors in mice were treated successfully with a compound of this invention.
(§3) In the table, column 1 gives the name of the compound; column 2, the transplanted tumor; column 3, the dose level or dose level range and the number of days the dosage was administered; column 4, the route of administration, and column 5, the percent inhibition of tumor growth or percent prolongation of survival time, e.g., B16. (ROS is an abbreviation of Ridgeway osteogenic sarcoma; GLS for Gardner lymphosarcoma; P1534(J) and L1210 are leukemias; CA755 is an adenocarcinoma; and B16 is a melanoma.).

[3] = test system: 755 (CA755 adenocarcinoma); experiment: transplanted CA755 adenocarcinoma in mice; format: in vivo; details: IP
Experimental: as §1, §2, §3

[4] = test system: B16 melanoma; experiment: transplanted B16 melanoma in mice (survival); format: in vivo; details: IP
Experimental: as §1, §2, §3
**Delayed treatment-dosed 5th, 9th and 13th days

[5] = pKa' in 66% DMF; format: physicochemical
[6] = test system: P1534(J) leukemia; experiment: transplanted P1534(J) leukemia in mice; format: in vivo; details: IP
Experimental: as §1, §2, §3

[7] = test system: transplanted tumors; experiment: anti-tumor / oncolytic activity against transplanted tumors in mice; format: in vivo
From the text: as §1

[8] = cited from earlier work
[9] = test system: experimental tumors; details: cited from earlier work
[10] = test system: L1210 leukemia; experiment: transplanted L1210 leukemia in mice; format: in vivo; details: IP
Experimental: as §1, §2, §3

[11] = test system: ROS (Ridgeway osteogenic sarcoma); experiment: transplanted Ridgeway osteogenic sarcoma (ROS) in mice; format: in vivo; details: IP
Experimental: as §1, §2, §3

With `CC[C@]1(O)C[C@@H]2CN(CCc3c([nH]c4ccccc34)[C@@](C(=O)OC)(c3cc4c(cc3OC)N(C)[C@H]3[C@@](O)(C(=O)OC)[C@H](OC(C)=O)[C@]5(CC)C=CCN6CC[C@]43[C@@H]65)C2)C1` [vincaleukoblastine] as the compound, how does the “activity in the treatment of experimental malignancies in animals” value (shortened to “activity in the treatment”) [1] read?
The value was “active”.

With `CC[C@@]1(O)C[C@@H]2CN(CCc3c([nH]c4ccccc34)[C@@](C(=O)OC)(c3cc4c(cc3OC)N(C)[C@H]3[C@@](O)(C(=O)OC)[C@H](OC(C)=O)[C@]5(CC)C=CCN6CC[C@]43[C@@H]65)C2)C1` [leurosidine] as the compound, how does the “activity in the treatment” value [1] read?
The value was “active”.

Which results are given for `CC[C@@H]1C[C@@H]2CN(CCc3c([nH]c4ccccc34)[C@@](C(=O)OC)(c3cc4c(cc3OC)N(C=O)[C@H]3[C@@](O)(C(=O)OC)[C@H](OC(C)=O)[C@]5(CC)C=CCN6CC[C@]43[C@@H]65)C2)C1` [4'-Deoxyvincristine sulfate, 4'-deoxyvincristine sulfate]?
Percent Inhibition or Prolongation of Survival Time ([2]; 0.18-0.25 mg./kg. × 3 days, IP): 62-94%; Percent Inhibition or Prolongation of Survival Time (Toxic) ([2]; 0.4-0.6 mg./kg. × 3 days, IP): Toxic; Percent Inhibition or Prolongation of Survival Time (Toxic) ([3]; 0.9 mg./kg. × 3 days): Toxic; Percent Inhibition or Prolongation of Survival Time ([3]; 0.06-0.13 mg./kg. × 9-10 days): 15-100%; Percent Inhibition or Prolongation of Survival Time ([3]; 0.1-0.3 mg./kg. × 3 days): 36-100%; Percent Inhibition or Prolongation of Survival Time (Toxic) ([3]; 0.25-1.8 mg./kg. × 9-10 days): Toxic; Percent Inhibition or Prolongation of Survival Time ([4]; 0.30-0.9 mg./kg. × 3 days, *1 or more indefinite survivors): 36-143%

For `CC[C@H]1C[C@@H]2CN(CCc3c([nH]c4ccccc34)[C@@](C(=O)OC)(c3cc4c(cc3OC)N(C=O)[C@H]3[C@@](O)(C(=O)OC)[C@H](O)[C@]5(CC)C=CCN6CC[C@]43[C@@H]65)C2)C1` [4'-Deoxy-4-desacetyl 1-desmethyl-1-formyl-leurosidine sulfate], which “Percent Inhibition or Prolongation of Survival Time” value ([2]; 0.18 mg./kg. × 3 days, route not given) is on record?
The value was 95%.

And the “Percent Inhibition or Prolongation of Survival Time (Toxic)” value ([2]; 0.6 mg./kg. × 3 days, route not given)?
The value was “Toxic”.

And the “Percent Inhibition or Prolongation of Survival Time” value ([2]; 0.25-0.40 mg./kg. × 3 days, route not given)?
Its value is 94-100%.

What about the “Percent Inhibition or Prolongation of Survival Time” value ([4]; 0.15-0.6 mg./kg. × 3 days, **delayed treatment, dosed 5th, 9th and 13th days) of the same compound?
Its value is 31 -62%.

Which “Percent Inhibition or Prolongation of Survival Time” value ([2]; 0.25-0.6 mg./kg. × 3 days, IP) does the source give for `CC[C@H]1C[C@@H]2CN(CCc3c([nH]c4ccccc34)[C@@](C(=O)OC)(c3cc4c(cc3OC)N(C=O)[C@H]3[C@@](O)(C(=O)OC)[C@H](OC(C)=O)[C@]5(CC)C=CCN6CC[C@]43[C@@H]65)C2)C1` [4'-deoxy-1-formylleurosidine] here?
Its value is 73-100%.

And the pKa [5]?
The pKa was 9.

And the “Percent Inhibition or Prolongation of Survival Time” value ([3]; 0.25 mg./kg. × 3 days)?
Its value is 47%.

And the “Percent Inhibition or Prolongation of Survival Time” value ([3]; 0.4 mg./kg. × 3 days)?
The value was 73%.

What about the “Percent Inhibition or Prolongation of Survival Time” value ([3]; 0.6 mg./kg. × 3 days) of the same compound?
Its value is 54%.

What about the “Percent Inhibition or Prolongation of Survival Time” value ([3]; 0.03-0.09 mg./kg. × 9 days) of the same compound?
Its value is 8-72%.

What about the “Percent Inhibition or Prolongation of Survival Time” value ([3]; 0.06-0.135 mg./kg. × 10 days) of the same compound?
Its value is 33-93%.

And the “Percent Inhibition or Prolongation of Survival Time (Toxic)” value ([3]; 0.2-0.3 mg./kg. × 10 days)?
Its value is “Toxic”.

What about the “Percent Inhibition or Prolongation of Survival Time (Toxic)” value ([4]; 0.9 mg./kg. × 3 days) of the same compound?
Its value is “Toxic”.

And the “Percent Inhibition or Prolongation of Survival Time” value ([4]; 0.25-0.6 mg./kg. × 3 days)?
Its value is 98-146%.

What about the “Percent Inhibition or Prolongation of Survival Time (Toxic)” value ([6]; 0.18 mg./kg. × 10 days) of the same compound?
The value was “Toxic”.

What about the “Percent Inhibition or Prolongation of Survival Time” value ([6]; 0.08-0.18 mg./kg. × 10 days) of the same compound?
The value was 9-46%.

With `CC[C@]1(O)C[C@@H]2CN(CCc3c([nH]c4ccccc34)[C@@](C(=O)OC)(c3cc4c(cc3OC)N(C=O)[C@H]3[C@@](O)(C(=O)OC)[C@H](OC(C)=O)[C@]5(CC)C=CCN6CC[C@]43[C@@H]65)C2)C1` [leurocristine] as the compound, how does the “activity in the treatment” value [1] read?
The value was “active”.

Which “anti-tumor / oncolytic activity” value [7] does the source give for `CC[C@H]1C[C@@H]2CN(CCc3c([nH]c4ccccc34)[C@@](C(=O)OC)(c3cc4c(cc3OC)N(C)[C@H]3[C@@](O)(C(=O)OC)[C@H](O)[C@]5(CC)C=CCN6CC[C@]43[C@@H]65)C2)C1` [4'-deoxy-4-desacetylleurosidine] here?
The value was “oncolytic agent”.

Which “activity in the treatment” value [1] does the source give for `CCC1(O)CN2CCc3c([nH]c4ccccc34)C(C(=O)OC)(c3cc4c(cc3OC)N(C)C3C(O)(C(=O)OC)C(OC(C)=O)C5(CC)C=CCN6CCC43C65)CC(C2)C1O` (stereo not drawn) [vincadioline] here?
Its value is “active”.

Which clinical response [8] does the source give for `CCC12CN3CCc4c([nH]c5ccccc45)[C@@](C(=O)OC)(c4cc5c(cc4OC)N(C)[C@H]4[C@@](O)(C(=O)OC)[C@H](OC(C)=O)[C@]6(CC)C=CCN7CC[C@]54[C@@H]76)C[C@@H](C3)C1O2` (stereo partly drawn) [leurosine] here?
Its clinical response is “limited”.

What about the “oncolytic activity in experimental tumors in mice” value [9] of the same compound?
Its value is “demonstrated oncolytic activity”.

And the “activity in the treatment” value [1]?
The value was “active”.

Which “activity in the treatment” value [1] does the source give for `CCC1(O)CN2CCc3c([nH]c4ccccc34)C(C(=O)OC)(c3cc4c(cc3OC)N(C)C3C(O)(C(=O)OC)CC5(CC)C=CCN6CCC43C65)CC(C2)C1O` (stereo not drawn) [4-desacetoxy-3'-hydroxyvinblastine] here?
The value was “active”.

Which “activity in the treatment” value [1] does the source give for `CCC1(O)CN2CCc3c([nH]c4ccccc34)C(C(=O)OC)(c3cc4c(cc3OC)N(C)C3C(O)(C(=O)OC)C(OC(C)=O)C5(CC)C=CCN6CCC43C65)CC(O)(C2)C1` (stereo not drawn) [leurocolombine] here?
Its value is “active”.

What does the source list for `CC[C@H]1C[C@@H]2CN(CCc3c([nH]c4ccccc34)[C@@](C(=O)OC)(c3cc4c(cc3OC)N(C=O)[C@H]3[C@@](O)(C(=O)OC)[C@H](OC(C)=O)[C@]5(CC)C=CCN6CC[C@]43[C@@H]65)C2)C1` [4'-Deoxy-1-formylleurosidine sulfate]?
Percent Inhibition or Prolongation of Survival Time ([2]; 0.18 mg./kg. × 3 days, IP): 100%; Percent Inhibition or Prolongation of Survival Time (Toxic) ([2]; 0.25 mg./kg. × 3 days, IP): Toxic; Percent Inhibition or Prolongation of Survival Time ([2]; 0.4 mg./kg. × 3 days, IP): 100%; Percent Inhibition or Prolongation of Survival Time (Toxic) ([2]; 0.6 mg./kg. × 3 days, IP): Toxic; Percent Inhibition or Prolongation of Survival Time ([10]; 0.25 mg./kg. × 3 days, *1 or more indefinite survivors): 65%; Percent Inhibition or Prolongation of Survival Time (Toxic) ([10]; 0.4-0.6 mg./kg. × 3 days): Toxic; Percent Inhibition or Prolongation of Survival Time ([11]; 0.18 mg./kg. × 3 days): 93%; Percent Inhibition or Prolongation of Survival Time (Toxic) ([11]; 0.25 mg./kg. × 3 days): Toxic; Percent Inhibition or Prolongation of Survival Time ([11]; 0.4 mg./kg. × 3 days): 100%

Which “activity in the treatment” value [1] does the source give for `CC[C@]1(O)C[C@@H]2CN(CCc3c([nH]c4ccccc34)[C@@](C(=O)OC)(c3cc4c(cc3OC)N(C)[C@@H]3[C@]45CCN4CC=C[C@@](CC)(C[C@]3(O)C(=O)OC)[C@H]45)C2)C1` [4-desacetoxy vinblastine] here?
Its value is “active”.

Which results are given for `CC[C@H]1C[C@@H]2CN(CCc3c([nH]c4ccccc34)[C@@](C(=O)OC)(c3cc4c(cc3OC)N(C)[C@H]3[C@@](O)(C(=O)OC)[C@H](OC(C)=O)[C@]5(CC)C=CCN6CC[C@]43[C@@H]65)C2)C1` [deoxy VLB "B"]?
oncolytic activity in experimental tumors in mice [9]: lack reproducible activity; activity in the treatment of experimental malignancies in animals [1]: active

What does the source list for `CC[C@@H]1C[C@@H]2CN(CCc3c([nH]c4ccccc34)[C@@](C(=O)OC)(c3cc4c(cc3OC)N(C)[C@H]3[C@@](O)(C(=O)OC)[C@H](OC(C)=O)[C@]5(CC)C=CCN6CC[C@]43[C@@H]65)C2)C1` [deoxy VLB "A"]?
oncolytic activity in experimental tumors in mice [9]: lack reproducible activity; activity in the treatment of experimental malignancies in animals [1]: active

Which “Percent Inhibition or Prolongation of Survival Time (Toxic)” value ([2]; 0.4 mg./kg. × 3 days, IP) does the source give for `CC[C@H]1C[C@@H]2CN(CCc3c([nH]c4ccccc34)[C@@](C(=O)OC)(c3cc4c(cc3OC)N(C)[C@H]3[C@@](O)(C(=O)OC)[C@H](O)[C@]5(CC)C=CCN6CC[C@]43[C@@H]65)C2)C1` [4'-deoxy-4-desacetyl-leurosidine sulfate, 4'-deoxy-4-desacetylleurosidine sulfate] here?
The value was “Toxic”.

And the “Percent Inhibition or Prolongation of Survival Time” value ([2]; 0.6 mg./kg. × 3 days, IP)?
The value was 63%.

What about the “Percent Inhibition or Prolongation of Survival Time (Toxic)” value ([2]; 0.9 mg./kg. × 3 days, IP) of the same compound?
Its value is “Toxic”.

What about the “Percent Inhibition or Prolongation of Survival Time” value ([3]; 0.25 mg./kg. × 3 days) of the same compound?
Its value is 32%.

What about the “Percent Inhibition or Prolongation of Survival Time” value ([3]; 0.4 mg./kg. × 3 days) of the same compound?
Its value is 37%.

What about the “Percent Inhibition or Prolongation of Survival Time (Toxic)” value ([3]; 0.6 mg./kg. × 3 days) of the same compound?
The value was “Toxic”.

And the “Percent Inhibition or Prolongation of Survival Time” value ([4]; 0.15 mg./kg. × 3 days, **delayed treatment, dosed 5th, 9th and 13th days)?
Its value is 77%.

What about the “Percent Inhibition or Prolongation of Survival Time” value ([4]; 0.3 mg./kg. × 3 days, **delayed treatment, dosed 5th, 9th and 13th days) of the same compound?
Its value is 103%.

And the “Percent Inhibition or Prolongation of Survival Time (Toxic)” value ([4]; 0.6 mg./kg. × 3 days, **delayed treatment, dosed 5th, 9th and 13th days)?
Its value is “Toxic”.

With `CCC12CN3CCc4c([nH]c5ccccc45)[C@@](C(=O)OC)(c4cc5c(cc4OC)N(C=O)[C@H]4[C@@](O)(C(=O)OC)[C@H](OC(C)=O)[C@]6(CC)C=CCN7CC[C@]54[C@@H]76)C[C@@H](C3)C1O2` (stereo partly drawn) [leuroformine, N-formylleurosine] as the compound, how does the “activity in the treatment” value [1] read?
Its value is “active”.
